Test results reported in publication PMC9851200, “Multiparameter phenotypic screening for endogenous TFEB and TFE3 translocation identifies novel chemical series modulating lysosome function” (Autophagy, 2022).

Columns and labels:
Type in all cases: binding
[1] = target: kinases (KINOMEscan panel) (Homo sapiens, UniProt P31751); details: NEW KINOMEscan
[2] = target: kinases (KINOMEscan panel) (Homo sapiens, UniProt P50613); details: kinase CDK7; NEW KINOMEscan
[3] = target: kinases (KINOMEscan panel) (Homo sapiens, UniProt P00519, Y253F); details: kinase ABL1(Y253F)-phosphorylated; NEW KINOMEscan
[4] = target: T1, kinases (KINOMEscan panel) (Homo sapiens, UniProt P51955); details: kinase NEK2; NEW KINOMEscan
T1 sequence (P51955 1-445): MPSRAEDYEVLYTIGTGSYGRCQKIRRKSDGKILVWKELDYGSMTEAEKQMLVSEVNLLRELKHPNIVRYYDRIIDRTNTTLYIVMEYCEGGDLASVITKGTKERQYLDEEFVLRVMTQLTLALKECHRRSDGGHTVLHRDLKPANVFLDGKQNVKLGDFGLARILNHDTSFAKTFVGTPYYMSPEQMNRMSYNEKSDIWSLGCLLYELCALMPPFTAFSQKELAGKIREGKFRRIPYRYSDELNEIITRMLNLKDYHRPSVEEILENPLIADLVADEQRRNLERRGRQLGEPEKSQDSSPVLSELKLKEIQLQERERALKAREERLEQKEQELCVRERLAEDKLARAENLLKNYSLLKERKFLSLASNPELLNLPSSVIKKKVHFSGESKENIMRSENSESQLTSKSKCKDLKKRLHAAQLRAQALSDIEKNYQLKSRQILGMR

[5] = target: kinases (KINOMEscan panel) (Homo sapiens, UniProt P42336, E545A); details: NEW KINOMEscan
[6] = target: kinases (KINOMEscan panel) (Homo sapiens, UniProt P07949, V804L); details: NEW KINOMEscan
[7] = target: T2, kinases (KINOMEscan panel) (Homo sapiens, UniProt Q8TD19); details: NEK9; NEW KINOMEscan
T2 sequence (Q8TD19 1-979): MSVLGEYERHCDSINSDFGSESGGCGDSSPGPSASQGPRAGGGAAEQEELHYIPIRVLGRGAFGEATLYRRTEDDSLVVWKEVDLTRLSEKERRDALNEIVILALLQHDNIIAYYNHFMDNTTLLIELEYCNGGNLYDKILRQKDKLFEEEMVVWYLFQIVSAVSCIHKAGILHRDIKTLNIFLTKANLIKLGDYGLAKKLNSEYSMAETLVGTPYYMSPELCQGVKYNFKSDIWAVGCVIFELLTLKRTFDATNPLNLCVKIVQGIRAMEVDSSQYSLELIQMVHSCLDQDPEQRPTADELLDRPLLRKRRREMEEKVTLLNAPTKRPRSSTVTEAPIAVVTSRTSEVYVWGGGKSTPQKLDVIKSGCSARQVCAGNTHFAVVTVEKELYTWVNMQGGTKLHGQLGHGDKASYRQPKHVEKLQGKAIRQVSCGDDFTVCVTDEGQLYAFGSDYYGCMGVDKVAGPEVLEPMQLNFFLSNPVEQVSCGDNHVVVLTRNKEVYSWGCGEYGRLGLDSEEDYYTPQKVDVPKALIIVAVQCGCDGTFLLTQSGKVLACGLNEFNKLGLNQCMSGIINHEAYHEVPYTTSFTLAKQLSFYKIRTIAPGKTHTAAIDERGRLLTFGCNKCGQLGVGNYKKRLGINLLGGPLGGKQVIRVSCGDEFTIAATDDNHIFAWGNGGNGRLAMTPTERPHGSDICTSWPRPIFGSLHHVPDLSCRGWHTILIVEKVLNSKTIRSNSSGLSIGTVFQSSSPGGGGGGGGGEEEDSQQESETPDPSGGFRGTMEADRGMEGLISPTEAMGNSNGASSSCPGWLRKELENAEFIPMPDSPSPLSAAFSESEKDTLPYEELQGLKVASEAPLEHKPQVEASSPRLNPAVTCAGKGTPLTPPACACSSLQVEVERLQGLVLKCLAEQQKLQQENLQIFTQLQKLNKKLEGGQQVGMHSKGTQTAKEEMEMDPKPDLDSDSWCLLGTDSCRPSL

[8] = target: T3, kinases (KINOMEscan panel) (Homo sapiens, UniProt P30530); details: AXL; NEW KINOMEscan
T3 sequence (P30530 26-894): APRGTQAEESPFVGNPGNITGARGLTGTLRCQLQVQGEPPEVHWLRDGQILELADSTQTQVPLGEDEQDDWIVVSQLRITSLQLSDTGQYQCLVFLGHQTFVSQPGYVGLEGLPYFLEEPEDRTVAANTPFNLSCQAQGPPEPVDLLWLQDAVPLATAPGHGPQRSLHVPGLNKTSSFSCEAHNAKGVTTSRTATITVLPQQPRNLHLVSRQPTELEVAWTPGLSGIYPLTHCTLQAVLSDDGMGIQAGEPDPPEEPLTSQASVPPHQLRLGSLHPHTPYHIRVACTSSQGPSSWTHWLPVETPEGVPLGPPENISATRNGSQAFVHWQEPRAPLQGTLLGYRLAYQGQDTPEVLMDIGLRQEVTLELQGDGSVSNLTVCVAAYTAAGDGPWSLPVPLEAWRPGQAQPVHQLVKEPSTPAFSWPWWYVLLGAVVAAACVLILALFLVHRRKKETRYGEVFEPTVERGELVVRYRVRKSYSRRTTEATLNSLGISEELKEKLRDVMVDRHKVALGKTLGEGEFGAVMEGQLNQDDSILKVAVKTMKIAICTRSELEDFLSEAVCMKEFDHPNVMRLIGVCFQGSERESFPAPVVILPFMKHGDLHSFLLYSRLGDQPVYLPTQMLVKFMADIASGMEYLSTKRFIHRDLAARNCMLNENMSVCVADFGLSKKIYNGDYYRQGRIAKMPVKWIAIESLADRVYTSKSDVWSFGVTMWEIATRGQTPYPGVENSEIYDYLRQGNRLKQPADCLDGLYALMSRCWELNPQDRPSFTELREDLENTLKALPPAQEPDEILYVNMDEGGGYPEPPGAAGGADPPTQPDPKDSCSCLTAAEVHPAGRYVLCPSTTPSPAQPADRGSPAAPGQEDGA

Sequence of kinases (KINOMEscan panel) (Homo sapiens, UniProt P50613) (P50613 whole entry): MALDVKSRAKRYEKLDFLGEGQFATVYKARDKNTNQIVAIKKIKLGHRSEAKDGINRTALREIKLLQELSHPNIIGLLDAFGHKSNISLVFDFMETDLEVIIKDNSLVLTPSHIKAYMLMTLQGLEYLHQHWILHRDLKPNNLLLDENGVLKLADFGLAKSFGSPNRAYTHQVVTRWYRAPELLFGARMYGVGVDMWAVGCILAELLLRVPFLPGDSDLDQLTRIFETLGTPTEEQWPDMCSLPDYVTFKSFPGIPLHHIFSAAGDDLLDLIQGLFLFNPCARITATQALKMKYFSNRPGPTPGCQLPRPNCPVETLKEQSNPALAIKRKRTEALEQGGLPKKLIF
Sequence of kinases (KINOMEscan panel) (Homo sapiens, UniProt P42336, E545A) (P42336 whole entry E545A): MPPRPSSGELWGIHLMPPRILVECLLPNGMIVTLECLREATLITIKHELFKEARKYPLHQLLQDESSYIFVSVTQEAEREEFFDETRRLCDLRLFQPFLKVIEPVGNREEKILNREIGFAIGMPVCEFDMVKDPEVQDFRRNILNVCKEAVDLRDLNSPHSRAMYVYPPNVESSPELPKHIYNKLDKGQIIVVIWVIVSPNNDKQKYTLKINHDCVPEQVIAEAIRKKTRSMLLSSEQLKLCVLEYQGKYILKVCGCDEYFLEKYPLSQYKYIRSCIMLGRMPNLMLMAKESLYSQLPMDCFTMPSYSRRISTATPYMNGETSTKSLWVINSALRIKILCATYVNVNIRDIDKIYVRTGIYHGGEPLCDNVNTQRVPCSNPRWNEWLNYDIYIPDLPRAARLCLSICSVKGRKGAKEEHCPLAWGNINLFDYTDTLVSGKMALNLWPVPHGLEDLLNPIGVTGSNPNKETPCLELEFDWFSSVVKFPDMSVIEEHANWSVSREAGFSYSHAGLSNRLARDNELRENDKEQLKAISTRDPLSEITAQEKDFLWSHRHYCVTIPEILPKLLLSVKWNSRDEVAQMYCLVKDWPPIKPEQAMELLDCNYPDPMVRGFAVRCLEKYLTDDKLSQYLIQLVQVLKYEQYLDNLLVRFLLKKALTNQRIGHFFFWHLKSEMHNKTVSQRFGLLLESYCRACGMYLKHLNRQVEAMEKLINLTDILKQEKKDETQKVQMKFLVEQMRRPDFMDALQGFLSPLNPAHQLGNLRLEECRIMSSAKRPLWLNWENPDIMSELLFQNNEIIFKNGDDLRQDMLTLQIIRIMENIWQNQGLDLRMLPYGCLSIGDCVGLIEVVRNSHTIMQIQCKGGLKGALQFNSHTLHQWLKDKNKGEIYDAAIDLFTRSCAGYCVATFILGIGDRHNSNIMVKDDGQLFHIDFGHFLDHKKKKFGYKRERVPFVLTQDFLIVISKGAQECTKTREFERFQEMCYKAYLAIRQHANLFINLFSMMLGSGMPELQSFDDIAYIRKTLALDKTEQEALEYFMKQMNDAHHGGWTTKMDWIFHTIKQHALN
Sequence of kinases (KINOMEscan panel) (Homo sapiens, UniProt P31751) (P31751 whole entry): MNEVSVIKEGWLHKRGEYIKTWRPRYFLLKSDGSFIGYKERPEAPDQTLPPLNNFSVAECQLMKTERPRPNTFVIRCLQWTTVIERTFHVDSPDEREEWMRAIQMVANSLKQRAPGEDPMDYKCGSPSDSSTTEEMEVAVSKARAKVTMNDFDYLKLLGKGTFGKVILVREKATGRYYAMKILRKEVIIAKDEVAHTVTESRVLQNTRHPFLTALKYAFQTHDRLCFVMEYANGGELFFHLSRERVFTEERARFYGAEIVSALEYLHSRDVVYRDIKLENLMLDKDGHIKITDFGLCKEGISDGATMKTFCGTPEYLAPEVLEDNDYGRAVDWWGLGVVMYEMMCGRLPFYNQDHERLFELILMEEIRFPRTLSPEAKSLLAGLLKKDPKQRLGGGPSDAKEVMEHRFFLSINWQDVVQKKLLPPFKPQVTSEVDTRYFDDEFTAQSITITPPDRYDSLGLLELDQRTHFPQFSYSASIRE
Sequence of kinases (KINOMEscan panel) (Homo sapiens, UniProt P07949, V804L) (P07949 29-1114 V804L): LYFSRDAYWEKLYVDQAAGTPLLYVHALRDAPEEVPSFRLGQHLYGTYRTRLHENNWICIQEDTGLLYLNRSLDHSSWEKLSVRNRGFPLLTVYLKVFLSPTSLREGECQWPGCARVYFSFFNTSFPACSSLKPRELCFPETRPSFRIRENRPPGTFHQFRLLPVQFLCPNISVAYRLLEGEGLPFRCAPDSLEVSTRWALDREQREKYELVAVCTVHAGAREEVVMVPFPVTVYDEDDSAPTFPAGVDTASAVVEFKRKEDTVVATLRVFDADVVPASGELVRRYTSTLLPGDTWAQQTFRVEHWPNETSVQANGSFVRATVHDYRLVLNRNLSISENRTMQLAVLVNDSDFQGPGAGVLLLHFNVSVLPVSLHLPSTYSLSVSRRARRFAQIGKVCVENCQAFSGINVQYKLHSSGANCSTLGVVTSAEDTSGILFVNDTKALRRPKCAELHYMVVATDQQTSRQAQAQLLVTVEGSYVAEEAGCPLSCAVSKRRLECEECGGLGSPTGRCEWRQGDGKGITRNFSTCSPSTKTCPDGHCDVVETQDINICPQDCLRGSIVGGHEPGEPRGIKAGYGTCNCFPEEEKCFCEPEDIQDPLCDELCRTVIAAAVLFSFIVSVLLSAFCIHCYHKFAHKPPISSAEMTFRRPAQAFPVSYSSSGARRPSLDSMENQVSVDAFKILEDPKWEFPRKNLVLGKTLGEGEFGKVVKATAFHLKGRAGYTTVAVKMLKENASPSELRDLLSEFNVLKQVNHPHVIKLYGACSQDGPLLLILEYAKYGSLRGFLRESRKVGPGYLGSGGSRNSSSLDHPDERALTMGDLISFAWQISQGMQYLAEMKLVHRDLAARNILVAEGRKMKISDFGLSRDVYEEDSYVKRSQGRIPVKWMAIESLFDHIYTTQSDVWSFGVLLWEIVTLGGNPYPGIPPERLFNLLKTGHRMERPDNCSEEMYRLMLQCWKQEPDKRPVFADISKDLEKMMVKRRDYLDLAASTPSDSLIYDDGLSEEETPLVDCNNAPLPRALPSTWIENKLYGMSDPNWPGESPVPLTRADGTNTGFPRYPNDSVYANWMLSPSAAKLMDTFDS

Structure (SMILES): Cc1cccc(-c2nc(Nc3ccc4nn(C)cc4c3)c3ccccc3n2)n1 [NK167]
- KINOMEscan AKT2 [1]: 28
- KINOMEscan CDK7 [2]: 0
- KINOMEscan ABL1(Y253F)-phosphorylated [3]: 0
- KINOMEscan NEK2 [4]: 0
- KINOMEscan PIK3CA(E545A) [5]: 31
- KINOMEscan RET(V804L) [6]: 0
- KINOMEscan NEK9 [7]: 0
- KINOMEscan AXL [8]: 0

Structure (SMILES): Cc1cccc(-c2nc(N(C)c3ccc4ncsc4c3)c3ccccc3n2)n1 [NK-161]
- KINOMEscan AKT2 [1]: 19
- KINOMEscan CDK7 [2]: 7
- KINOMEscan ABL1(Y253F)-phosphorylated [3]: 0
- KINOMEscan NEK2 [4]: 1
- KINOMEscan PIK3CA(E545A) [5]: 14
- KINOMEscan RET(V804L) [6]: 15
- KINOMEscan NEK9 [7]: 0
- KINOMEscan AXL [8]: 0
